Patent publication US7579469B2, “Glucocorticoid mimetics, methods of making them, pharmaceutical compositions, and uses thereof” (Boehringer Ingelheim Pharmaceuticals, Inc., priority 2003, dated 2009)

Biological target: T1, human glucocorticoid receptor (GR) complex (Homo sapiens, UniProt P04150)
T1 construct: made in house; host or cells: insect expression system (baculovirus lysate)
T1 sequence (P04150 1-777): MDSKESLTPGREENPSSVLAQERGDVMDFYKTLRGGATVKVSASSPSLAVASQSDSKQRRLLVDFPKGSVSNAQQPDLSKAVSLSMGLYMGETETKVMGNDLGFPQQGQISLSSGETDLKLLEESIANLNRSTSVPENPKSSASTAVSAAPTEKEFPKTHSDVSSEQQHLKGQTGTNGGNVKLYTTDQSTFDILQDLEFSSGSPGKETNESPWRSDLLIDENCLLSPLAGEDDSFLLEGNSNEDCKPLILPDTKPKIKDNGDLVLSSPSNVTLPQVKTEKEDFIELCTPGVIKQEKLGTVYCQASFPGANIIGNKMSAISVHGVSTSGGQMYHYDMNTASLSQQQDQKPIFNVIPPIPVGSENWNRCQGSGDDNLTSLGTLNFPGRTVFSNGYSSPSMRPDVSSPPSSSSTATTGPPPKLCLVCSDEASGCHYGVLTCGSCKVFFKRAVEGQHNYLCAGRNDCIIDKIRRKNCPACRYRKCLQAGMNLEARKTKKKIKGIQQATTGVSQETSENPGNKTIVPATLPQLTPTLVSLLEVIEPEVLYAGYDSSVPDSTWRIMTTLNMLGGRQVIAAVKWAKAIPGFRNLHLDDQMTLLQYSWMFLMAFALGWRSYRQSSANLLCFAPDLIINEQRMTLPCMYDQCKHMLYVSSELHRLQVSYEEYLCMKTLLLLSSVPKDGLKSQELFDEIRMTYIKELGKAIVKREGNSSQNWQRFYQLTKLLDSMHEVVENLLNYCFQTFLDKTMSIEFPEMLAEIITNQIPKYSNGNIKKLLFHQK
Assay: Glucocorticoid receptor competitive binding assay (fluorescence polarization)
Conditions: competition with TAMRA-labeled dexamethasone
Description: Compounds of the invention were evaluated for binding to the steroid receptor by a fluorescence polarization competitive binding assay.
A. Glucocorticoid Receptor Competitive Binding Assay
Step 1. Characterization of the Fluorescent Probe
The wavelengths for maximum excitation and emission of the fluorescent probe should first be measured. An example of such a probe is rhodamine (TAMRA)-labeled dexamethasone.
The affinity of the probe for the steroid receptor was then determined in a titration experiment. The fluorescence polarization value of the probe in assay buffer was measured on an SLM-8100 fluorometer using the excitation and emission maximum values described above. Aliquots of expression vector lysate were added and fluorescence polarization was measured after each addition until no further change in polarization value was observed. Non-linear least squares regression analysis was used to calculate the dissociation constant of the probe from the polarization values obtained for lysate binding to the probe.
Step 2. Screening for Inhibitors of Probe Binding
This assay uses fluorescence polarization (FP) to quantitate the ability of test compounds to compete with tetramethyl rhodamine (TAMRA)-labeled dexamethasone for binding to a human glucocorticoid receptor (GR) complex prepared from an insect expression system. The assay buffer was: 10 mM TES, 50 mM KCl, 20 mM Na2MoO4.2H20, 1.5 mM EDTA, 0.04% w/v CHAPS, 10% v/v glycerol, 1 mM dithiothreitol, pH 7.4. Test compounds were dissolved to 1 mM in neat DMSO and then further diluted to 10× assay concentration in assay buffer supplemented with 10% v/v DMSO. Test compounds were serially diluted at 10× assay concentrations in 10% DMSO-containing buffer in 96-well polypropylene plates. Binding reaction mixtures were prepared in 96-well black Dynex microtiter plates by sequential addition of the following assay components to each well: 15 μL of 10× test compound solution, 85 μL of GR-containing baculovirus lysate diluted 1:170 in assay buffer, and 50 μL of 15 nM TAMRA-labeled dexamethasone. Positive controls were reaction mixtures containing no test compound; negative controls (blanks) were reaction mixtures containing 0.7 μM to 2 μM dexamethasone. […] IC50 values were determined by iterative non-linear curve fitting of the FP signal data to a 4-parameter logistic equation.

Structure (SMILES) | activity in the GR binding assay
CC(C)(CC(O)(Cn1[nH]c(=O)c2ccccc21)C(F)(F)F)c1cc(F)ccc1O (centres unmarked) [1-[4-(5-Fluoro-2-hydroxyphenyl)-2-hydroxy-4-methyl-2-trifluoromethylpentyl]-1,2-dihydroindazol-3-one] | potent activity
CC(C)(CC(O)(Cn1ccc(=O)c2ncccc21)C(F)(F)F)c1cc(F)ccc1O (centres unmarked) [1-[4-(5-Fluoro-2-hydroxyphenyl)-2-hydroxy-4-methyl-2-trifluoromethylpentyl]-1H-[1,5]naphthyridin-4-one] | potent activity
Cc1cn(CC(O)(CC(C)(C)c2cc(F)ccc2O)C(F)(F)F)c(CO)c(C)c1=O (centres unmarked) [1-[4-(5-Fluoro-2-hydroxyphenyl)-2-hydroxy-4-methyl-2-trifluoromethylpentyl]-2-hydroxymethyl-3,5-dimethyl-1H-pyridin-4-one] | potent activity
Cc1cn(CC(O)(CC(C)(C)c2cc(F)ccc2O)C(F)(F)F)cc(C)c1=O (centres unmarked) [1-[4-(5-Fluoro-2-hydroxyphenyl)-2-hydroxy-4-methyl-2-trifluoromethylpentyl]-3,5-dimethyl-1H-pyridin-4-one] | potent activity
CC(C)(CC(O)(Cn1cc(CO)c(=O)c2ccccc21)C(F)(F)F)c1cc(F)ccc1O (centres unmarked) [1-[4-(5-Fluoro-2-hydroxyphenyl)-2-hydroxy-4-methyl-2-trifluoromethylpentyl]-3-hydroxymethyl-1H-quinolin-4-one] | potent activity
COc1ccc(F)cc1C(C)(C)CC(C)(O)Cn1cc(C)c(=O)c(C)c1 (centres unmarked) [1-[4-(5-Fluoro-2-methoxyphenyl)-2-hydroxy-2,4-dimethylpentyl]-3,5-dimethyl-1H-pyridin-4-one] | potent activity
COc1ccc(F)cc1C(C)(C)CC(O)(Cn1[nH]c(=O)c2ccccc21)C(F)(F)F (centres unmarked) [1-[4-(5-Fluoro-2-methoxyphenyl)-2-hydroxy-4-methyl-2-trifluoromethylpentyl]-1,2-dihydroindazol-3-one] | potent activity
COc1ccc(F)cc1C(C)(C)CC(O)(Cn1ncc(=O)c2ccccc21)C(F)(F)F (centres unmarked) [1-[4-(5-Fluoro-2-methoxyphenyl)-2-hydroxy-4-methyl-2-trifluoromethylpentyl]-1H-cinnolin-4-one] | potent activity
COc1ccc(F)cc1C(C)(C)CC(O)(Cn1cc(C)c(=O)c(C)c1CO)C(F)(F)F (centres unmarked) [1-[4-(5-Fluoro-2-methoxyphenyl)-2-hydroxy-4-methyl-2-trifluoromethylpentyl]-2-hydroxymethyl-3,5-dimethyl-1H-pyridin-4-one] | potent activity
COc1ccc(F)cc1C(C)(C)CC(O)(Cn1cc(CO)c(=O)c2ccccc21)C(F)(F)F (centres unmarked) [1-[4-(5-Fluoro-2-methoxyphenyl)-2-hydroxy-4-methyl-2-trifluoromethylpentyl]-3-hydroxymethyl-1H-quinolin-4-one] | potent activity
COc1ccc(F)cc1C(C)(C)CC(O)(Cn1cc(C(F)(F)F)cc([N+](=O)[O-])c1=O)C(F)(F)F (centres unmarked) [1-[4-(5-Fluoro-2-methoxyphenyl)-2-hydroxy-4-methyl-2-trifluoromethylpentyl]-3-nitro-5-trifluoromethyl-1H-pyridin-2-one] | potent activity
Cc1ccc(F)cc1C(C)(C)CC(O)(Cn1ccc(=O)c2ncccc21)C(F)(F)F (centres unmarked) [1-[4-(5-Fluoro-2-methylphenyl)-2-hydroxy-4-methyl-2-trifluoromethylpentyl]-1H-[1,5]naphthyridin-4-one] | potent activity
Cc1ccc(F)cc1C(C)(C)CC(O)(Cn1cc(C)c(=O)c(C)c1)C(F)(F)F (centres unmarked) [1-[4-(5-Fluoro-2-methylphenyl)-2-hydroxy-4-methyl-2-trifluoromethylpentyl]-3,5-dimethyl-1H-pyridin-4-one] | potent activity
COc1ccc(-c2ccoc2)cc1C(C)(C)CC(O)(Cn1ccc(=O)c2ccccc21)C(F)(F)F (centres unmarked) [1-[4-(5-Furan-3-yl-2-methoxyphenyl)-2-hydroxy-4-methyl-2-trifluoromethylpentyl]-1H-quinolin-4-one] | potent activity
CC(=O)COc1cccc(C(C)(C)CC(O)(Cn2ccc(=O)c3ccccc32)C(F)(F)F)c1 (centres unmarked) [1-{2-Hydroxy-4-methyl-4-[3-(2-oxopropoxy)phenyl]-2-trifluoromethylpentyl}-1H-quinolin-4-one] | potent activity
Cc1noc(C)c1-c1cccc(C(C)(C)CC(O)(Cn2ccc(=O)c3ccccc32)C(F)(F)F)c1 (centres unmarked) [1-{4-[3-(3,5-Dimethylisoxazol-4-yl)phenyl]-2-hydroxy-4-methyl-2-trifluoromethylpentyl}-1H-quinolin-4-one] | potent activity

Second part, the compound after the results:

activity in the GR binding assay | Structure (SMILES)
potent activity | COc1ccc(C(C)=O)cc1C(C)(C)CC(O)(Cn1ccc(=O)c2ccccc21)C(F)(F)F (centres unmarked) [1-[4-(5-Acetyl-2-methoxyphenyl)-2-hydroxy-4-methyl-2-trifluoromethylpentyl]-1H-quinolin-4-one]
potent activity | CC(C)(CC(O)(Cn1ccc(=O)c2ccccc21)C(F)(F)F)c1cc(Br)ccc1O (centres unmarked) [1-[4-(5-Bromo-2-hydroxyphenyl)-2-hydroxy-4-methyl-2-trifluoromethylpentyl]-1H-quinolin-4-one]
potent activity | COc1ccc(Br)cc1C(C)(C)CC(O)(Cn1ccc(=O)c2ccccc21)C(F)(F)F (centres unmarked) [1-[4-(5-Bromo-2-methoxyphenyl)-2-hydroxy-4-methyl-2-trifluoromethylpentyl]-1H-quinolin-4-one]
potent activity | CC(C)(CC(O)(Cn1ccc(=O)c2ccccc21)C(F)(F)F)c1cc(Cl)cc2c1OCC2 (centres unmarked) [1-[4-(5-Chloro-2,3-dihydrobenzofuran-7-yl)-2-hydroxy-4-methyl-2-trifluoromethylpentyl]-1H-quinolin-4-one]
potent activity | COc1ccc(F)cc1C(C)(C)CC(O)(Cn1ccc(=O)c2ccccc21)C(F)(F)F (centres unmarked) [1-[4-(5-Fluoro-2-methoxyphenyl)-2-hydroxy-4-methyl-2-trifluoromethylpentyl]-1H-quinolin-4-one]
potent activity | Cc1cc2c(c(C(C)(C)CC(O)(Cn3ccc(=O)c4ccccc43)C(F)(F)F)c1)OCC2 (centres unmarked) [1-[4-(5-Methyl-2,3-dihydrobenzofuran-7-yl)-2-hydroxy-4-methyl-2-trifluoromethylpentyl]-1H-quinolin-4-one]
potent activity | COc1ccc(C2OCCCO2)cc1C(C)(C)CC(O)(Cn1ccc(=O)c2ccccc21)C(F)(F)F (centres unmarked) [1-[4-(5-[1,3]Dioxan-2-yl-2-methoxyphenyl)-2-hydroxy-4-methyl-2-trifluoromethylpentyl]-1H-quinolin-4-one]
potent activity | CC(C)(CC(O)(Cn1ccc(=O)c2ccccc21)C(F)(F)F)c1cc(Br)cc2c1OCO2 (centres unmarked) [1-[4-(6-Bromobenzo[1,3]dioxol-4-yl)-2-hydroxy-4-methyl-2-trifluoromethylpentyl]-1H-quinolin-4-one]
potent activity | CC(C)(CC(O)(Cn1ccc(=O)c2ccccc21)C(F)(F)F)c1ccccc1 (centres unmarked) [1-[4-Phenyl-2-hydroxy-4-methyl-2-trifluoromethylpentyl]-1H-quinolin-4-one]
potent activity | CC(C)(CC(O)(Cn1ccc(=O)c2ccccc21)C(F)(F)F)c1cccc(C2(C)OCCO2)c1 (centres unmarked) [1-{2-Hydroxy-4-methyl-4-[3-(2-methyl-[1,3]dioxolan-2-yl)phenyl]-2-trifluoromethylpentyl}-1H-quinolin-4-one]
